Read-outs that look alike come from different tables or passages of the source. Blank lines part the entries; values can stand above or below the compound they belong to.
Tests used:
CYP19A1 (Aromatase) = target: T1, CYP19A1 (Aromatase) (Homo sapiens, UniProt P11511); assay: Aromatase (CYP19A1) Inhibitor Screening Kit, recombinant enzyme; assay type: biochemical
T1 construct: purchased BioVision K984-100
T1 sequence (P11511 1-503): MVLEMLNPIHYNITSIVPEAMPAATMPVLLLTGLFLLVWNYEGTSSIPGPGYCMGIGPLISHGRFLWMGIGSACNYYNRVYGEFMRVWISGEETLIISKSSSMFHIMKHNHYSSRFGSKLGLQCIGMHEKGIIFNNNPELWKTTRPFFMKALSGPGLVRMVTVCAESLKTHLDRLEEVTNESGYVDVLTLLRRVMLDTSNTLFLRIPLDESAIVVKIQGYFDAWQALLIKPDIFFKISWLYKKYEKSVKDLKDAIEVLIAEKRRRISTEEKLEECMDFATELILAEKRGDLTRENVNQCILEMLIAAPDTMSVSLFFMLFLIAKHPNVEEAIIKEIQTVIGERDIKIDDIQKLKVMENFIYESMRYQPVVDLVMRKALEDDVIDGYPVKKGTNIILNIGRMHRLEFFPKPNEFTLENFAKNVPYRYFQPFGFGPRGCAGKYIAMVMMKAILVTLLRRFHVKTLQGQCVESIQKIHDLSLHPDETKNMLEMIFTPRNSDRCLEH
Experimental: The in vitro tests on Aromatase were performed by using the Kit Cat# K984-100 assay kit; the Regeneration System, 100× and NADP^+: (100×), 10 mM were used as reaction buffer. In particular, the enzyme was first prepared with the Regeneration System and substrate with NADP^+ in freshly prepared reaction buffer. Then, the resulting solution was delivered into the reaction well.

MCF-7 cells = assay: Cell proliferation assay (trypan blue cell count); assay type: cell-based, human; conditions: read-out: antiproliferative IC50
Experimental: MCF-7 and MDA-MB-231 cells were plated in 24-well plates and allowed to attach overnight. […] At the end of the treatment, viable cells (evaluated by trypan blue dye exclusion) were counted with a hemocytometer.

[1] = system: CYP11B2 (Aldosterone Synthase); conditions: cited from earlier work
[2] = target: CYP11B1 (11β-Hydroxylase); conditions: cited from earlier work

inhibition of CYP19A1 (CYP19A1 (Aromatase)): no inhibition
Structure (SMILES): OCc1cnc(S)n1Cc1ccc(Cl)cc1Cl [X1]

IC50 (MCF-7 cells; Homo sapiens, MCF7, 24 h, MCF-7, 24 h): 764 ± 114 nM | IC50 (MCF-7 cells; Homo sapiens, MCF7, 48 h, MCF-7, 48 h): 599 ± 333 nM | IC50 (MCF-7 cells; Homo sapiens, MCF7, 72 h, MCF-7, 72 h): 121 ± 30 nM | IC50 (MCF-7 cells; MCF-7, 72 h): 120 ± 30 nM
Structure (SMILES): N#Cc1ccc(C(c2ccc(C#N)cc2)n2cncn2)cc1 [letrozole]
IC50 [1]: 1420 nM | IC50 [2]: 2620 nM

melting point: 225.4 to 226.9 °C
Structure (SMILES): O=[N+]([O-])c1cc(C(F)(F)F)ccc1Sc1ncc(CO)n1Cc1ccccc1 [X12, (1-Benzyl-2-((2-nitro-4-(trifluoromethyl)phenyl)thio)-1H-imidazol-5-yl)methanol]
